These results are taken from the Deep4Chem optical property database.

Several values for one entry are separate records, joined by “and”; a condition that tells them apart may be missing. Equal values may be shown once.

The series is described as follows: solvent given as SMILES.

With `COC(=O)c1ccc(C2=C(/C=C/c3ccc(OC)cc3)O[B-](F)(F)[O+]=C2/C=C/c2ccc(OC)cc2)cc1`, where the note is “in ClCCl”, the absorption maximum is 507 nm.
For `CCCn1c2cccc3oc4cccc5c4[c+](c32)c2c1cccc2n5CCC`, the absorption maximum (in CC#N) was 557 nm.
As to `c1ccc(-p2c(-c3cccs3)cc3ccccc32)cc1` (stereo not given), under “in C1CCOC1”, the absorption maximum was found to be 350 nm.
Consider `CCOC(=O)c1ccccc1-c1c2ccc(=[N+](CC)CC)cc-2oc2c1c(=O)oc1cc3c(cc12)CCCN3C`, for which the absorption maximum by setting is: (in CCO) 602 nm; (in ClC(Cl)Cl) 608 nm; (in O) 602 nm.
`c1ccc(-c2cc3cc4cccc5c(-c6ccccc6)cc6cc7cccc2c7c3c6c45)cc1` had an absorption maximum (in ClCCl) of 439 nm.
With `c1ccc2c[n+]3ccccc3cc2c1`, the absorption maximum (in O) is 396 nm.
`Cc1ccc(/C=C(\c2ccccc2)c2nc3ccccc3o2)cc1`: the absorption maximum by setting is: (in C1CCCCC1) 325 nm; (in CO) 330 nm.
The compound `CC(C)(C)NC(=O)c1cccc2ccc3c4ccc(F)cc4c4cc(F)ccc4c3c12` came in with an absorption maximum (in ClCCl) of 329 nm.
As for `CC1(C)CC(=O)c2cc(F)cc(F)c2N1`, the absorption maximum stood at 377 nm (in CC#N) and 386 nm (in CCO).
`CC1(C)C2=C(c3ccccc31)S(=O)(=O)c1ccccc12` showed an absorption maximum (in ClCCl) of 355 nm.
For `Cc1ccc(O)cc1`, under “in O”, the absorption maximum was 276 nm.
On to `COc1ccc(-c2nc3c(ccc4ccccc43)oc2=O)cc1`, for which the absorption maximum (in c1ccccc1) is reported as 410 nm.
Where the note is “in C1COCCO1”, `CCC(C)(C)c1ccc(-c2ccc(-c3ccc(C(C)(C)CC)cc3)cc2)cc1` registered an absorption maximum of 289 nm.
As to `C(#Cc1ccc2ccc3cccc4ccc1c2c34)c1ccccc1`, under “in Cc1ccccc1”, the absorption maximum is given as 362 nm.
Same read-out and setting: with `CC1(C)c2ccccc2N(c2ccc(-c3ncccn3)cc2)c2ccccc21` the figure was 359 nm.
`F[B-]1(F)n2c(ccc2-c2ccccc2)C(C(F)(F)F)=C2C=CC(c3ccccc3)=[N+]21` returned an absorption maximum (in CCCCCC) of 592 nm.
Take `I[I-]I`: the absorption maximum (in O) is on record as 351.77 nm.
`CCCCN(CCCC)c1ccc(C#Cc2cc(C#Cc3ccc(N(CCCC)CCCC)cc3)c(C#Cc3ccc([N+](=O)[O-])cc3)cc2C#Cc2ccc([N+](=O)[O-])cc2)cc1` came in with an absorption maximum (in ClCCl) of 426 nm.
In turn, `O=C([O-])c1ccccc1-c1c2cc(Br)c(=O)c(Br)c-2oc2c(Br)c([O-])c(Br)cc12` came in with an absorption maximum (in CC(C)O) of 529 nm, an absorption maximum (in CCO) of 527 nm, an absorption maximum (in CO) of 522 nm and an absorption maximum (in O) of 515 nm.
For the setting “in ClC(Cl)Cl”, `N#Cc1c(C#N)c2ccccc2c2ccccc12` displayed an absorption maximum of 346 nm.
In the case of `Cc1nc2c(ccc3ccccc32)oc1=O`, the absorption maximum (in c1ccccc1) is recorded as 364 nm.
Consider `CCC(=O)c1ccc2cc(N(C)C)ccc2c1`, for which the absorption maximum (in C1CCCCC1) is 342 nm and 343 nm; the absorption maximum (in C1CCOC1) was determined as 346 nm; the absorption maximum (in C1COCCO1) was determined as 348 nm; the absorption maximum (in CC#N) is 347 nm and 368 nm; the absorption maximum (in CC(C)=O) is reported as 350 nm; the absorption maximum (in CC(C)O) was 367 nm. Besides, the absorption maximum runs as follows: (in CCC(C)=O) 367 nm; (in CCCCCC) 338 nm; (in CCCCCCC) 343 nm; (in CCCCCCCCO) 360 nm; (in CCN(CC)CC) 343 nm; (in CCO) 362 nm and 369 nm. Moreover, the absorption maximum runs as follows: (in CCOC(C)=O) 352 nm; (in CN(C)C=O) 350 nm; (in CO) 362 nm; (in CS(C)=O) 359 nm and 369 nm; (in Cc1ccccc1) 345 nm and 349 nm; (in ClC(Cl)Cl) 358 nm. In addition, the absorption maximum (in ClCCl) was 355 nm and 358 nm; the absorption maximum (in Clc1ccccc1) is 254 nm and 354 nm; the absorption maximum (in O) stood at 364 nm; the absorption maximum (in OCC(O)CO) was found to be 370 nm; the absorption maximum (in OCCO) stood at 375 nm; the absorption maximum (in c1ccccc1) worked out at 355 nm.
Where the note is “in ClCCl”, `Clc1nnc(O/N=C/c2ccc(N(c3ccc(Br)cc3)c3ccc(Br)cc3)cc2)nn1` came in with an absorption maximum of 520 nm.
Consider `CCC1=C(C)C2=Cc3c4ccccc4c4n3[B-](c3cc[n+](C)cc3)(Oc3ccccc3-4)[N+]2=C1C` (stereo not given), for which the absorption maximum reads like this: (in CO) 621 nm; (in CS(C)=O) 626 nm.
For `c1ccc2c(-c3cncnc3)c3ccccc3c(-c3cncnc3)c2c1`, the absorption maximum reads like this: (in CCO) 394 nm; (in ClCCl) 397 nm.
As to `CN(C)c1ccc2c3c(ccc2c1)C(=O)CCC3`, the absorption maximum is recorded as 347 nm (in C1CCCCC1); 356 nm (in CC#N); 368 nm (in CC(C)O); 356 nm (in CCC(C)=O); 369 nm (in CCO); 353 nm (in CCOC(C)=O). The absorption maximum came to 363 nm (in CS(C)=O), 353 nm (in Cc1ccccc1), 358 nm (in ClCCl) and 357 nm (in Clc1ccccc1).
Under “in Cc1ccccc1”, `COc1ccc(C2=[N+]3C(=Nc4c(-c5cc(OC)c(OC)c(OC)c5)c(-c5ccc(C(C)(C)C)cc5)c(-c5ccc(OC)cc5)n4[B-]3(F)F)C(c3cc(OC)c(OC)c(OC)c3)=C2c2ccc(C(C)(C)C)cc2)cc1` had an absorption maximum of 694 nm.
`c1ccc(-c2nc(-c3ccc(-c4cncc5ccccc45)cc3)[nH]c2-c2ccccc2)cc1`: the absorption maximum (in C1CCOC1) was 333 nm.
For `COCCC1=Cc2nc1ccc1[nH]c(c3nc(ccc4[nH]c2cc4CCOC)C(CCOC)=C3)c(CN(C)C)c1CCOC`, the absorption maximum (in Cc1ccccc1) was 643 nm.
`COC(=O)C(N)Cc1ccc(O[Si]2(Oc3ccc(CC(N)C(=O)OC)cc3)n3c4c5ccccc5c3/N=C3N=C(/N=c5/c6ccccc6/c(n52)=N/C2=NC(=N\4)/c4ccccc42)c2ccccc2\3)cc1` (stereo not given): the absorption maximum (in CN(C)C=O) came out at 680 nm.
For `N#Cc1c(-n2nnc3cc(Cl)ccc32)n([C@H]2C[C@H](O)[C@@H](CO)O2)c2ncnc(N)c12`, for the setting “in CO”, the absorption maximum came to 276 nm.
Regarding `CCOC(=O)c1cc(C(=O)OCC)c2cccc(O)c2n1`, where the note is “in CCO”, the absorption maximum was found to be 369 nm.
Turning to `Cc1c2ccc(=[N+]3CCCCC3)cc-2oc2cc(N3CCCCC3)ccc12`, for the setting “in ClCCl”, the absorption maximum amounted to 555 nm.
In the case of `Clc1nc(Nc2ccccc2)nc(Nc2ccc3cc4ccccc4cc3c2)n1`, the absorption maximum came to 398 nm (in C1COCCO1), 397 nm (in CC#N), 398 nm (in CCCCOCCCC) and 396 nm (in CCOC(C)=O).
On to `CCCCCCC(CCCCCC)N1C(=O)c2cccc3c(-c4ccccc4)ccc(c23)C1=O`, for which the absorption maximum reads like this: (in CCCCCC) 342.2 nm; (in CCCCCCCCCCCCCC) 343.4 nm; (in CCCCCCCCCCCO) 353.4 nm; (in CCCCO) 355.2 nm; (in CN(C)C=O) 355.2 nm; (in Cc1ccccc1) 346.8 nm. Where the note is “in ClC(Cl)Cl”, the absorption maximum is on record as 355.4 nm.
`COc1ccc(C2=C3C(/C=C/c4cc(OC)c(OC)c(OC)c4)=C(C=O)C(C)=[N+]3[B-](F)(F)n3c(/C=C/c4cc(OC)c(OC)c(OC)c4)c(C=O)c(C=Cc4cc(OC)c(OC)c(OC)c4)c32)cc1` had an absorption maximum (in ClCCl) of 634 nm.
Turning to `CC1=CC(C)=[N+]2C1=Cc1cccn1[B-]2(F)F`, the absorption maximum reads like this: (in CCCCCC) 493 nm; (in CO) 493 nm; (in ClCCl) 498 nm.
In the case of `CN(C)c1ccc(/C=C/c2nc3c4ccccc4c4ccccc4c3[nH]2)cc1`, the absorption maximum stood at 390 nm (in C1CCOC1); 389 nm (in C1COCCO1); 386 nm (in CC1CCCCC1); 389 nm (in CC#N); 387 nm (in CCOC(C)=O); 386 nm (in CCOCC). Further, the absorption maximum by setting is: (in CN(C)C=O) 392 nm; (in COC(C)=O) 389 nm; (in CS(C)=O) 396 nm; (in Cc1ccccc1) 393 nm; (in ClC(Cl)Cl) 393 nm.
With `COc1c2ccccc2c(OC)c2c1c1c(F)cccc1n2C`, the absorption maximum (in C1CCCCC1) is given as 403 nm, the absorption maximum (in CC#N) came out at 405 nm, the absorption maximum (in CO) stood at 404 nm and the absorption maximum (in ClCCl) is given as 406 nm.
The compound `C(=C\c1nc(/C=C/c2ccccc2)nc(/C=C/c2ccccc2)n1)/c1ccccc1` yielded an absorption maximum (in ClCCl) of 327 nm.
`Nc1ccc(/C=C/c2ccc3ccccc3c2)cc1`: the absorption maximum reads like this: (in CC#N) 348 nm; (in CCCCCC) 342 nm.
As for `CC1CC=C(c2ccc(-c3ccc(C#N)s3)s2)CC1` (stereo not given), the absorption maximum was 357 nm (in C1CCOC1); 355 nm (in CC#N); 356 nm (in CCCCCC); 358 nm (in CCO); 366 nm (in OCCOCCO); 363 nm (in c1ccncc1).
Regarding `COc1ccc2c3c(OC)c4ccccc4c(OC)c3n(C)c2c1`, the absorption maximum by setting is: (in C1CCCCC1) 392 nm; (in CC#N) 393 nm; (in CO) 392 nm; (in ClCCl) 396 nm.
As for `c1ccc2c(c1)-c1ccccc1[Si]21c2ccccc2-c2cc3c(cc21)-c1ccccc1[Si]31c2ccccc2-c2ccccc21`, the absorption maximum (in ClCCl) is recorded as 329 nm.
`COC(=O)c1ccc(/C=C2\C=C(c3ccc(OC)c(OC)c3)NC2=O)cc1`: where the note is “in C1COCCO1”, the absorption maximum came out at 454 nm.
Regarding `C(=C\c1c2ccccc2cc2ccccc12)/c1ccc2ccccc2c1`, the absorption maximum came to 386 nm (in CC1CCCCC1) and 387 nm (in CC#N).
Turning to `F[B-]1(F)n2c(Nc3cccc4cccnc34)ccc2C(c2ccccc2)=C2C=CC(Cl)=[N+]21`, the absorption maximum by setting is: (in C1CCCCC1) 560 nm; (in CC#N) 547 nm; (in Cc1ccccc1) 561 nm; (in ClC(Cl)Cl) 555 nm.
